From patent publication US20230055237A1, “COMPOUNDS AND METHODS FOR THE TREATMENT OF CYSTIC FIBROSIS” (Flatley Discovery Lab, LLC, priority 2019, published 2023) come the findings set out here.

In this assay the target is T1, CFTR (Homo sapiens, UniProt P13569, DEL508-508).
T1 construct: Primary CF airway epithelial cells were obtained from the UNC Cystic Fibrosis Tissue Procurement and Cell Culture Core; host or cells: primary CF airway epithelial cells, differentiated at the air-liquid interface
Nature of the assay: Equivalent current assay in primary CF airway epithelial cells (NAUC, combination with 1st site corrector FDL169 or VX-809). Format: cell-based. The conditions noted are these: 37° C., 24 h.

Where [1] appears, read: test compound 1 μM in combination with 1st site corrector FDL169 (3 μM).
Where [2] appears, read: test compound 3 μM in combination with 1st site corrector FDL169 (3 μM).
[3] abbreviates: test compound 10 μM in combination with 1st site corrector VX-809 (3 μM).
Where [4] appears, read: test compound 3 μM in combination with 1st site corrector VX-809 (3 μM).

T1 sequence (P13569 with tags, fused parts or gaps DEL508-508): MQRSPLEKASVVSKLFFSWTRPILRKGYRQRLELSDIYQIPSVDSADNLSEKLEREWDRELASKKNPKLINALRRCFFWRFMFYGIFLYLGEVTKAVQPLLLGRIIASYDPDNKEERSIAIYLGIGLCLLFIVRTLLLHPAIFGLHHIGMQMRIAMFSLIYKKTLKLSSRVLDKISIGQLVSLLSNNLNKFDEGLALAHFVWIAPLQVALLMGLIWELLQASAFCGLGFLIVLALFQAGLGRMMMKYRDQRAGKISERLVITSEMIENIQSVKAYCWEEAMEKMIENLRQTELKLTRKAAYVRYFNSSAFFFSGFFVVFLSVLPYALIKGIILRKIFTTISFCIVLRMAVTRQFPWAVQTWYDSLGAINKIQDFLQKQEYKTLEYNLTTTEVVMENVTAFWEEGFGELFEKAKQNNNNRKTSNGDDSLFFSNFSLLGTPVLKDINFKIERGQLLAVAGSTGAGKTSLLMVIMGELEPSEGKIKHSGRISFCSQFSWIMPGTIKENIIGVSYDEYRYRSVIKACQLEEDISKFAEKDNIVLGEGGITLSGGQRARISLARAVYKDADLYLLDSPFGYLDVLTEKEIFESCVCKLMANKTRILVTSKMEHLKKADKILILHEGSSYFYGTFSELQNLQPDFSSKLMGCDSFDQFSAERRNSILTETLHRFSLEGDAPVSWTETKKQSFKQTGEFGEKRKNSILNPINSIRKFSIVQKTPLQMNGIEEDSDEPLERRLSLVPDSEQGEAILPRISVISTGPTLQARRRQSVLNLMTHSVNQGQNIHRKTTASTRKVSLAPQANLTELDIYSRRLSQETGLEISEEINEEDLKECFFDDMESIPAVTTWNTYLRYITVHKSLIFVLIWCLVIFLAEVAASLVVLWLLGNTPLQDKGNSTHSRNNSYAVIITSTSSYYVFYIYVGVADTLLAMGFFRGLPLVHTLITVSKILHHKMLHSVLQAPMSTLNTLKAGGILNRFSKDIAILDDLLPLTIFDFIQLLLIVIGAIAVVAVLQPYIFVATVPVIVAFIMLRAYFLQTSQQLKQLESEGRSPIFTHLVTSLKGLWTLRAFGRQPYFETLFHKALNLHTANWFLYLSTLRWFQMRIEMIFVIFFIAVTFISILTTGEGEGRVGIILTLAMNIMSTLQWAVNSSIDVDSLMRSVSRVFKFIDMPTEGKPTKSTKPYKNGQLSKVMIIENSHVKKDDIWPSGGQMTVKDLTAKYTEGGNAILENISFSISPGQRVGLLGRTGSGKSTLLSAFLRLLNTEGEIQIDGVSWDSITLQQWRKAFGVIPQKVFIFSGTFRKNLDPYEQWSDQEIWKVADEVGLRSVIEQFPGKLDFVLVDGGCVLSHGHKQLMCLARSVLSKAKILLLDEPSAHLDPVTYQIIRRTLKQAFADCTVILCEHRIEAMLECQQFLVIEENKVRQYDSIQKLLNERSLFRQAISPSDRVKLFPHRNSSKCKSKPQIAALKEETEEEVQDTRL

For `O=C(O)[C@H]1[C@@H](C(=O)N(CC2CCCCC2)c2cc(Cl)cc(Cl)c2)[C@H]2CC(F)(F)CN2[C@]12C(=O)Nc1c(Cl)cc(Cl)cc12` [Example 177], the “Nauc @ 1 μM” value under setting [1] is reported as “+++ (NAUC “+++” refers to an observed NAUC>170% of positive control)”. Further, the “Nauc @ 3 μM” value under setting [2] is on record as “++ (NAUC “++” refers to an observed NAUC 170-140% of positive control)”. Further, the “Nauc @ 10 μM” value (test compound 10 μM in combination with 1st site corrector FDL169 (3 μM)) was “++ (NAUC “++” refers to an observed NAUC 170-140% of positive control)”.
Consider `Cc1cccc(C(F)(F)C2NC3(C(=O)Nc4c(Cl)cc(Cl)cc43)C(C(=O)O)C2C(=O)Nc2cc(Cl)cc(Cl)c2)c1` (stereo not shown) [Example 62], for which the “Nauc @ 10 μM” value under setting [3] is “+++ (NAUC “+++” refers to an observed NAUC>170% of positive control)”.
Consider `COc1cc(C(F)(F)F)cc(NC(=O)C2C3C[C@](C)(O)CN3C3(C(=O)Nc4c(Cl)cc(Cl)cc43)C2C(=O)O)n1` (stereo partly shown) [Example 6], for which the “Nauc @ 3 μM” value under setting [4] was “+++ (NAUC “+++” refers to an observed NAUC>170% of positive control)”. Also, the “Nauc @ 10 μM” value under setting [3] is recorded as “+++ (NAUC “+++” refers to an observed NAUC>170% of positive control)”.
For `CN(C(=O)C1C2N(CCC2(F)F)C2(C(=O)Nc3c(Cl)cc(Cl)cc32)C1C(=O)O)c1cc(Cl)cc(Cl)c1` (single isomer, unassigned) [Example 268b, 5,7-dichloro-1′-((3,5-dichlorophenyl)(methyl)carbamoyl)-7′,7′-difluoro-2-oxo-1′,2′,5′,6′,7′,7a′-hexahydrospiro[indoline-3,3′-pyrrolizine]-2′-carboxylic acid], the “Nauc @ 1 μM” value (test compound 1 μM in combination with 1st site corrector VX-809 (3 μM)) is reported as “+++ (NAUC “+++” refers to an observed NAUC>170% of positive control)”. In addition, the “Nauc @ 3 μM” value under setting [4] was “+++ (NAUC “+++” refers to an observed NAUC>170% of positive control)”.
For `O=C(Nc1cc(Cl)cc(Cl)c1)C1C(C(F)(F)c2cccc(C(F)(F)F)c2)NC2(C(=O)Nc3c(Cl)cc(Cl)cc32)C1C(=O)O` (stereo not shown) [Example 70.b], under setting [3], the “Nauc @ 10 μM” value is recorded as “+ (NAUC “+” refers to an observed NAUC <140% of positive control)”.
Same read-out and setting: in the case of `CC(=O)OCOC(=O)[C@H]1[C@@H](C(=O)N(C)c2cc(Cl)cc(Cl)c2)[C@H]2CC(F)(F)CN2C12C(=O)Nc1c(Cl)cc(Cl)cc12` (mixture of isomers) [Example 257, acetoxymethyl (1′R,2′S,3R,7a′R)-5,7-dichloro-1-((3,5-dichlorophenyl)(methyl)carbamoyl)-6′,6′-difluoro-2-oxo-1′,2′,5′,6′,7′,7a′-hexahydrospiro[indoline-3,3′-pyrrolizine]-2′-carboxylate] it was “+++ (NAUC “+++” refers to an observed NAUC>170% of positive control)”.
In the case of `O=C(Nc1cc(Cl)cc(Cl)c1)C1C(C(F)(F)c2ccccc2)NC2(C(=O)Nc3c(Cl)cc(Cl)cc32)C1C(=O)O` (stereo not shown) [Example 39], the “Nauc @ 3 μM” value under setting [4] was “+++ (NAUC “+++” refers to an observed NAUC>170% of positive control)”. For the same compound, the “Nauc @ 10 μM” value under setting [3] is “+++ (NAUC “+++” refers to an observed NAUC>170% of positive control)”.
Take `O=C(O)[C@H]1[C@@H](C(=O)N(c2cc(Cl)cc(Cl)c2)C2CC(O)C2)[C@H]2CC(F)(F)CN2[C@]12C(=O)Nc1c(Cl)cc(Cl)cc12` (stereo partly shown) [Example 159]: the “Nauc @ 1 μM” value under setting [1] is listed as “+ (NAUC “+” refers to an observed NAUC <140% of positive control)”. Under setting [2], the “Nauc @ 3 μM” value is “+ (NAUC “+” refers to an observed NAUC <140% of positive control)”.
With `O=C(O)[C@H]1[C@@H](C(=O)N(CC2CC2)c2cc(Cl)cc(Cl)c2)[C@H]2CCCN2C12C(=O)Nc1c(Cl)cc(Cl)cc12` (single isomer, unassigned) [Example 83b], the “Nauc @ 1 μM” value under setting [1] was “+++ (NAUC “+++” refers to an observed NAUC>170% of positive control)”. In addition, the “Nauc @ 3 μM” value under setting [2] is “+++ (NAUC “+++” refers to an observed NAUC>170% of positive control)”.
